Measured values as given in ChEMBL document CHEMBL1201862, “PubChem BioAssay data set” (2004).
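Method: 48-hour compound exposure of cells in 96-well plates, five concentrations, linear interpolation of endpoints. GI50 is the concentration that inhibits growth by half.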 The source made the active and inactive calls. No stated cut-off is given here; in the data, active = GI50 up to about 1.1 µM and inactive = higher.

What was measured:
Experiment in all cases: NCI anticancer screen, dose series, 48 h
NCI-H460 = test system: NCI-H460
MDA-N = test system: MDA-N
SK-MEL-28 = test system: SK-MEL-28
A498 = test system: A498
SK-OV-3 = test system: SK-OV-3
HCT-116 = test system: HCT-116
SN12C = test system: SN12C
OVCAR-4 = test system: OVCAR-4
ACHN = test system: ACHN
HT-29 = test system: HT-29
MDA-MB-435 = test system: MDA-MB-435
NCI/ADR-RES = test system: NCI/ADR-RES
SK-MEL-2 = test system: SK-MEL-2
EKVX = test system: EKVX
SK-MEL-5 = test system: SK-MEL-5

SMILES | GI50 (NCI-H460) | GI50 (MDA-N) | GI50 (SK-MEL-28) | GI50 (A498) | GI50 (SK-OV-3) | GI50 (HCT-116) | GI50 (SN12C) | GI50 (OVCAR-4) | GI50 (ACHN) | GI50 (HT-29) | GI50 (MDA-MB-435) | GI50 (NCI/ADR-RES) | GI50 (SK-MEL-2) | GI50 (EKVX) | GI50 (SK-MEL-5)
O=C(N/N=C(COc1ccccc1Cl)\N=C\c1cccnc1)c1ccncc1 | > 100 µM (inactive) | > 100 µM (inactive) | > 100 µM (inactive) | > 100 µM (inactive) | > 100 µM (inactive) | > 100 µM (inactive) | > 100 µM (inactive) | > 100 µM (inactive) | > 100 µM (inactive) | > 100 µM (inactive) | > 100 µM (inactive) | > 100 µM (inactive) | > 100 µM (inactive) | > 100 µM (inactive) | 
COc1cc(/C=C2\CCc3ccccc3C2=O)ccc1O | 17.3 µM (inactive) |  | 21.1 µM (inactive) | > 10 µM (inactive) | 26 µM (inactive) |  | 22.4 µM (inactive) | 18.5 µM (inactive) | 26.4 µM (inactive) | 18.2 µM (inactive) |  | 29.5 µM (inactive) |  | 25.4 µM (inactive) | 17.7 µM (inactive)
O=C1OC(c2ccccc2)=N/C1=C\c1cn[nH]n1 | > 100 µM (inactive) | > 100 µM (inactive) | > 100 µM (inactive) | > 100 µM (inactive) | > 100 µM (inactive) | > 100 µM (inactive) | > 100 µM (inactive) | > 100 µM (inactive) | > 100 µM (inactive) | > 100 µM (inactive) | > 100 µM (inactive) | > 100 µM (inactive) | > 100 µM (inactive) | > 100 µM (inactive) | 
Cc1ccc(NC(=O)/C=C/c2ccccc2)c(C)c1 | > 100 µM (inactive) | > 100 µM (inactive) | > 100 µM (inactive) | > 100 µM (inactive) | 43.2 µM (inactive) | > 100 µM (inactive) | 94.8 µM (inactive) | > 100 µM (inactive) | 39.6 µM (inactive) | > 100 µM (inactive) | > 100 µM (inactive) |  | > 100 µM (inactive) | 26.6 µM (inactive) | > 100 µM (inactive)
CC[C@]1(Cc2ccc(OC)c(OC)c2)C=[N+]([O-])O[C@H](OCc2ccccc2)[C@@H]1OC(C)=O | 31 µM (inactive) | 36.1 µM (inactive) | 25.8 µM (inactive) | 32.7 µM (inactive) | 48.9 µM (inactive) |  |  | 24.1 µM (inactive) | 27.6 µM (inactive) | 29.5 µM (inactive) | 38.4 µM (inactive) | 33.3 µM (inactive) | 23 µM (inactive) | 16.5 µM (inactive) | 27.9 µM (inactive)
O=[N+]([O-])c1cccc2nccc(NCCCO)c12 | 11 µM (inactive) | 9.66 µM (inactive) | 12.4 µM (inactive) | 10.4 µM (inactive) | 23.3 µM (inactive) | 13 µM (inactive) | 14.8 µM (inactive) | 11 µM (inactive) | 14.3 µM (inactive) | 6.89 µM (inactive) | 11.7 µM (inactive) |  | 4.38 µM (inactive) | 6.79 µM (inactive) | 3.9 µM (inactive)
CCN(CC)CCCNc1nncc2c(C)c3[nH]c4ccccc4c3cc12 | 0.281 µM (active) | 1.06 µM (active) | 1.24 µM (inactive) | 0.665 µM (active) | 0.989 µM (active) |  | 0.292 µM (active) | 0.514 µM (active) | 0.914 µM (active) | 0.258 µM (active) | 1.25 µM (inactive) | 89.5 µM (inactive) | 2.22 µM (inactive) | 1.37 µM (inactive) | 1.99 µM (inactive)
CCOC(=O)C1=C(c2ccccc2)C12N(Cc1ccccc1)C(=O)C2(c1ccccc1)c1ccccc1 (stereo not drawn) | 28.2 µM (inactive) | 25.5 µM (inactive) | 74.3 µM (inactive) | 36.8 µM (inactive) | 47.9 µM (inactive) | 36.4 µM (inactive) | 57.8 µM (inactive) |  | 37.7 µM (inactive) | 43.2 µM (inactive) | 34.8 µM (inactive) |  | 24 µM (inactive) | 38.8 µM (inactive) | 
COc1ccc2cc(C(C)C(=O)N3C(=O)OCC3(C)C)ccc2c1 (stereo not drawn) | > 100 µM (inactive) | > 100 µM (inactive) | > 100 µM (inactive) | > 100 µM (inactive) | > 100 µM (inactive) | > 100 µM (inactive) | > 100 µM (inactive) | > 100 µM (inactive) | > 100 µM (inactive) | > 100 µM (inactive) | > 100 µM (inactive) | > 100 µM (inactive) |  | > 100 µM (inactive) | > 100 µM (inactive)
[O-][Cl+3]([O-])([O-])O.c1ccc(C2=NN2c2ccccc2)cc1 | 71.8 µM (inactive) | 4.27 µM (inactive) | > 100 µM (inactive) | > 100 µM (inactive) | > 100 µM (inactive) |  | > 100 µM (inactive) | > 100 µM (inactive) | 0.927 µM (active) | 29.3 µM (inactive) | 2.83 µM (inactive) | > 100 µM (inactive) | > 100 µM (inactive) | 92.7 µM (inactive) | 13.8 µM (inactive)
CCOC(=O)c1csc(-c2nc(CCNC(=O)c3ccccc3)sc2Cl)n1 | 34.4 µM (inactive) | > 100 µM (inactive) | 56.6 µM (inactive) | 15.4 µM (inactive) | > 100 µM (inactive) | 47 µM (inactive) | > 100 µM (inactive) |  | > 100 µM (inactive) | > 100 µM (inactive) | 62.7 µM (inactive) | 41.1 µM (inactive) |  | > 100 µM (inactive) | 42.7 µM (inactive)
CCOC(=O)c1c(N2CCOCC2)[nH]c(=O)c(C(c2c(Cl)cccc2Cl)c2c(O)c(C(=O)OCC)c(N3CCOCC3)[nH]c2=O)c1O | 21.4 µM (inactive) |  | 1.93 µM (inactive) | 8.71 µM (inactive) | 11.2 µM (inactive) | 4.39 µM (inactive) | 4.92 µM (inactive) | 9.84 µM (inactive) | 4.54 µM (inactive) | 3.56 µM (inactive) | 3.48 µM (inactive) | 18 µM (inactive) | 4.74 µM (inactive) | 18.9 µM (inactive) | 4.55 µM (inactive)
CC(C)(C)OC(=O)CCC1NC(=O)[C@@H]2Cc3c([nH]c4ccccc34)C(c3ccccc3)N2C1=O (stereo partly drawn) |  | 19.8 µM (inactive) | 44.5 µM (inactive) | 36.2 µM (inactive) | 29.6 µM (inactive) | 19.4 µM (inactive) | 23.7 µM (inactive) | 32.7 µM (inactive) | 27.9 µM (inactive) | 22.8 µM (inactive) | 21.7 µM (inactive) | 35.5 µM (inactive) | 21 µM (inactive) | 36.6 µM (inactive) | 17.6 µM (inactive)
N#C/C(C(=O)Nc1ccc(Cl)cc1)=C(/N)N1CCOCC1 | > 100 µM (inactive) | 61.8 µM (inactive) | 76 µM (inactive) | > 100 µM (inactive) | > 100 µM (inactive) | > 100 µM (inactive) | > 100 µM (inactive) |  | > 100 µM (inactive) | > 100 µM (inactive) | 56.9 µM (inactive) | > 100 µM (inactive) | > 100 µM (inactive) | > 100 µM (inactive) | 74.5 µM (inactive)
CC(C)(C)OC(=O)NC(Cc1ccc(OCc2ccccc2)cn1)C(=O)NCc1ccccc1 (stereo not drawn) | 22.7 µM (inactive) | 19.8 µM (inactive) | 31.3 µM (inactive) | 32.1 µM (inactive) | 22.1 µM (inactive) | 26.5 µM (inactive) | 28.1 µM (inactive) |  | 31.3 µM (inactive) | 29.9 µM (inactive) | 20.1 µM (inactive) | 16.7 µM (inactive) | 14.3 µM (inactive) | 26.2 µM (inactive) | 13.3 µM (inactive)
Oc1ccc(O)c(CNc2ccccc2)c1 | 20.8 µM (inactive) | 3.85 µM (inactive) | 33 µM (inactive) |  | 19.2 µM (inactive) | 7.26 µM (inactive) | 11.3 µM (inactive) | 13 µM (inactive) | 10.5 µM (inactive) | 32.2 µM (inactive) | 8.81 µM (inactive) | 7.01 µM (inactive) | 24.2 µM (inactive) | 18.7 µM (inactive) | 16.8 µM (inactive)
CC(=O)OCC1OC(N2C(=S)N[C@H]([C@@H](O)[C@H](O)[C@H](O)CO)[C@H]2O)C(OC(C)=O)C(OC(C)=O)C1OC(C)=O (stereo partly drawn) | > 100 µM (inactive) | > 100 µM (inactive) | > 100 µM (inactive) |  | > 100 µM (inactive) | > 100 µM (inactive) | > 100 µM (inactive) | > 100 µM (inactive) | > 100 µM (inactive) | > 100 µM (inactive) | > 100 µM (inactive) | > 100 µM (inactive) | > 100 µM (inactive) | > 100 µM (inactive) | > 100 µM (inactive)
O=C1C=CC[C@H]2O[C@@H](COC(=O)Cc3ccccc3)C[C@H]2O1 | 31.9 µM (inactive) | 41 µM (inactive) | 21.9 µM (inactive) | > 100 µM (inactive) | > 100 µM (inactive) |  | 66.1 µM (inactive) | 24 µM (inactive) | 32.1 µM (inactive) | 25.5 µM (inactive) | 40.5 µM (inactive) | 38 µM (inactive) | 51.5 µM (inactive) | 29.5 µM (inactive) | 49.7 µM (inactive)
CC(=O)c1sc2n(C)c(=O)c3ccccc3[n+]2c1C | > 100 µM (inactive) | > 100 µM (inactive) | > 100 µM (inactive) |  | > 100 µM (inactive) | > 100 µM (inactive) | > 100 µM (inactive) | > 100 µM (inactive) | > 100 µM (inactive) | > 100 µM (inactive) | > 100 µM (inactive) | > 100 µM (inactive) | > 100 µM (inactive) | > 100 µM (inactive) | > 100 µM (inactive)
CCC1(C)N=c2c(ncn2N=C(C)C)=C(C(N)=O)N1 (stereo not drawn) | > 100 µM (inactive) | > 100 µM (inactive) | > 100 µM (inactive) | > 100 µM (inactive) | > 100 µM (inactive) | > 100 µM (inactive) | > 100 µM (inactive) | > 100 µM (inactive) | > 100 µM (inactive) | > 100 µM (inactive) | > 100 µM (inactive) | > 100 µM (inactive) |  | > 100 µM (inactive) | > 100 µM (inactive)
